Patent publication EP2695950A1, “Markers for responsiveness to an inhibitor of the fibroblast growth factor receptor” (Blackfield AG, priority 2012, dated 2014)
Read-outs that look alike come from different tables or passages of the source.

How the values were obtained:
[1] = test system: H1581 cell line with Myc downregulated (shMyc); conditions: Figure 12, different concentrations
Experimental: (§1) All compounds were purchased from commercial suppliers, dissolved in DMSO, and stored at - 20°C. Cells were plated into sterile 96-- - well microtiter plates using a multichannel pipette and cultured overnight. Compounds were then added in serial dilutions. Cellular viability was determined after 96 hours of treatment by measuring cellular ATP content using the CellTiter-- Glo Assay (Promega). Plates were measured on a Mithras LB 940 Plate Reader (Berthold Technologies). GI50 values were determined using the following R package (Frommolt P, Thomas RK, 2008, Standardized high-- - throughput evaluation of cell-- - based compound screens. BMC Bioinformatics. 9:475)

[2] = test system: H1581 cell line; conditions: Figure 12; different concentrations
Experimental: as §1

[3] = test system: FGFR1-amplified and FGFR1 non-amplified cell lines
[4] = test system: Tumors derived from NIH3T3 cells expressing KRas G12V; assay: Xenograft mouse model, tumor volume; assay type: in vivo, mice; conditions: Figure 3; KRas G12V (positive control); 10mg/kg daily by oral gavage
Experimental: (§2) All animal procedures were approved by the local animal protection committee and the local authorities. Xenograft-experiments were performed in 10 to 15 week old male athymic NMRI-nude-mice (Janvier, Europe). Mice were hold in a 12 hour light-dark-cycle. They got water and standard food ad libitium.
(§3) NIH3T3-cells transduced with empty Vector (puro), empty Vector (puro+zeo), KRAS G12V, FGFR1-α, FGFR1-β, FGFR1-β + cMyc were cultured as described before. For implantation they were resuspended in plain RPMI in a concentration of 50*10^6 cells/ml. 5*10^6 cells were injected subcutaneously in mice, under 2.5% Isolflurane-anaesthesia. Tumorgrowth was monitored every 2nd day by calimetric measurement. Tumorvolumes were calculated by V= […].
(§4) Therapy was started when tumors reached a size of 100mm^3. They were treated daily by oral gavage either with 10mg/kg NVP-BGJ 398 (Novartis) dissolved in vehicle (PEG300, 5%Glucose; 2:1) or with the vehicle-detergent alone. After 8 (KRas), 12 (FGFR1-α and FGFR1-β + cMyc), days of therapy mice were sacrificed by intraperitoneal injection of Ketamin/Xylazine (300/60 mg/kg) and tumors were resected and fixed in 4% formaldehyde for histology.

[5] = test system: Tumors derived from NIH3T3 cells expressing only FGFR1; assay: Xenograft mouse model, tumor volume; assay type: in vivo, mice
Experimental: as §2, §3, §4

[6] = test system: Tumors derived from NIH3T3 cells expressing two different splice variants of FGFR1 plus Myc; assay: Xenograft mouse model, tumor volume; assay type: in vivo, mice
Experimental: as §2, §3, §4

[7] = test system: Tumors derived from NIH3T3 cells expressing EML4-Alk; assay: Xenograft mouse model, tumor volume; assay type: in vivo, mice; conditions: Figure 6; EML4-Alk (positive control)
[8] = Figure 3, FGFR1 plus Myc, 10mg/kg daily by oral gavage

IC50 values ([3]; Figure 8, cell lines expressing high amounts of FGFR and Myc) | IC50 values ([3]; Figure 9, cell lines H1581 and A427, high FGFR, higher FGFR1β/FGFR1α ratio, high Myc expression) | Compound | response to FGFR inhibition [1] | response to FGFR inhibition [2] | tumor size [4] | tumor size ([5]; Figure 3, only FGFR1, 10mg/kg daily by oral gavage) | tumor volume ([5]; Figure 5, tumor expressing only FGFR1, treated mouse) | tumor volume ([5]; Figure 6, two different splice variants of FGFR1) | tumor disappearance [6, 8] | tumor volume [6, 8] | tumor volume ([6]; Figure 5, tumor with FGFR1 and c-myc expression, treated mouse) | tumor volume [7]
lower IC50 values | lower IC50 values | CCN(CC)CCCCNc1ncc2cc(-c3cc(OC)cc(OC)c3)c(NC(=O)NC(C)(C)C)nc2n1 [PD173074] | less response | highly sensitive/responsive | – | – | – | – | – | – | – | –
– | – | CCN1CCN(c2ccc(Nc3cc(N(C)C(=O)Nc4c(Cl)c(OC)cc(OC)c4Cl)ncn3)cc2)CC1 [BGJ398] | – | – | strong tumor growth | stable disease | did not shrink and even little grew | stable disease under treatment | disappeared within ten days of treatment | strong reduction of tumor volume | completely disappeared after ten days of treatment | increase in tumor volume
